From US10906899B2, “Bicyclic fused pyrazole derivatives for the treatment of RSV” (GEORGIA STATE UNIVERSITY RESEARCH FOUNDATION, INC., priority 2016, dated 2021) come the findings set out here.

By EC50 is commonly meant the concentration giving half of the maximal effect.

One assay deals with RSV. The assay can be described thus: Dose-response counterscreen: luciferase reporter virus infection of BEAS-2B cells (EC50). The class given is cell-based, respiratory syncytial virus (RSV). The settings on record: human respiratory syncytial virus, A series compounds, anti-RSV potency, read-out: Potency Range (EC50 values). On the technique in general: Counterscreens check selectivity or assay interference.
On to `COc1cc(C2CC(=O)Nc3c2cnn3-c2nc3ccccc3s2)ccc1OC1CCCC1` (stereo not shown) [AVG-006, 1-(benzo[d]thiazol-2-yl)-4-(4-(cyclopentyloxy)-3-methoxyphenyl)-4,5-dihydro-1H-pyrazolo[3,4-b]pyridin-6(7H)-one], for which the half-maximal effective concentration (EC50) is 1 to 10 µM.

Turning to `COc1cc(C2CC(=O)Nc3nn(-c4nc5ccccc5s4)cc32)ccc1OC1CCCC1` (stereo not shown) [AVG-006b], the concentration giving a half-maximal response (EC50) fell in the range of 1 to 10 µM. Turning to `COc1ccc(C2CC(=O)Nc3c2cnn3-c2ccccc2)cc1OC1CCCC1` (stereo not shown) [AVG-065, 4-(3-(cyclopentyloxy)-4-methoxyphenyl)-1-phenyl-4,5-dihydro-1H-pyrazolo[3,4-b] pyridin-6(7H)-one], the half-maximal effective concentration (EC50) lay within 10 to 20 µM. Same read-out and setting: under `COc1ccc(C2CC(=O)Nc3nn(-c4ccccc4)cc32)cc1OC1CCCC1` (stereo not shown) [AVG-065b] stands 1 to 10 µM; under `COc1cc(C2CC(=O)Nc3c2cnn3-c2ccccc2)ccc1OC1CCCC1` (stereo not shown) [AVG-066], 10 to 20 µM; under `COc1ccc(-c2cc(=O)[nH]c3c2cnn3-c2ccccc2)cc1OC1CCCC1` [AVG-067, 4-(3-(cyclopentyloxy)-4-methoxyphenyl)-1-phenyl-1H-pyrazolo[3,4-b]pyridine-6(7H)-one], > 20 µM.

Regarding `COc1ccc(Cn2ncc3c2NC(=O)CC3c2ccc(OC)c(OC3CCCC3)c2)c(OC)c1` (stereo not shown) [AVG-068, 4-(3-(cyclopentyloxy)-4-methoxyphenyl)-1-(2,4-dimethoxybenzyl)-4,5-dihydro-1H-pyrazolo[3,4-b]pyridin-6(7H)-one], the 50% effective concentration (EC50) lay within 1 to 10 µM.

For the molecule `COc1ccc(C2CC(=O)Nc3[nH]ncc32)cc1OC1CCCC1` (stereo not shown) [AVG-069, 4-(3-(cyclopentyloxy)-4-methoxyphenyl)-4,5-dihydro-1H-pyrazolo[3,4-b]pyridin-6(7H)-one], the concentration for a half-maximal effect (EC50) is > 20 µM.

For `COc1ccc(C2CC(=O)Nc3c2cnn3-c2ccccn2)cc1OC1CCCC1` (stereo not shown) [AVG-116], the concentration giving a half-maximal response (EC50) was 1 to 10 µM.

Still in this assay, the particulars now being: human respiratory syncytial virus, B series compounds, read-out: Potency Range (EC50 values).
As for `Cc1c2c(=O)n(-c3nc4ccccc4s3)n(Cc3ccccc3)c2cc(=O)n1Cc1ccco1` [AVG-021, 2-(benzo[d]thiazol-2-yl)-1-benzyl-5-(furan-2-ylmethyl)-4-methyl-1H-pyrazolo[4,3-c] pyridine-3,6(2H,5H)-dione], the EC50 is 1 to 10 µM. On the same count and under the same terms, next, `Cc1c2c(=O)n(-c3nc4ccccc4s3)[nH]c2cc(=O)n1Cc1ccco1` [AVG-022, 2-(benzo[d]thiazol-2-yl)-5-(furan-2-ylmethyl)-4-methyl-1H-pyrazolo[4,3-c]pyridine-3,6(2H, 5H)-dione]: 0.1 to 1 µM; `Cc1c2c(=O)n(-c3nc4ccccc4s3)n(C)c2cc(=O)n1Cc1ccco1` [AVG-023]: > 20 µM; `Cc1c2c(=O)n(-c3nc4ccccc4s3)n(CC3CCCCC3)c2cc(=O)n1Cc1ccco1` [AVG-024]: 1 to 10 µM. Still for that read-out and setting: next, `Cc1c2c(=O)n(-c3nc4ccccc4s3)n(CC3CCOCC3)c2cc(=O)n1Cc1ccco1` [AVG-025]: 1 to 10 µM; `Cc1c2c(=O)n(-c3nc4ccccc4s3)n(CC3CCNCC3)c2cc(=O)n1Cc1ccco1` [AVG-026]: 1 to 10 µM. Same read-out and setting: under `Cc1c2c(=O)n(-c3nc4ccccc4s3)n(CC3CCN(C)CC3)c2cc(=O)n1Cc1ccco1` [AVG-027] stands 10 to 20 µM. Regarding `Cc1c2c(=O)n(-c3nc4ccccc4s3)n(Cc3ccccc3)c2cc(=O)n1CCN1CCOCC1` [AVG-028], the EC50 lay in the range of 1 to 10 µM. Same read-out and setting: next, `Cc1c2c(=O)n(-c3nc4ccccc4s3)n(C)c2cc(=O)n1CCN1CCOCC1` [AVG-029]: > 20 µM; `Cc1c2c(=O)n(-c3nc4ccccc4s3)n(Cc3ccccc3)c2cc(=O)n1Cc1ccc(Cl)cc1` [AVG-031]: 0.1 to 1 µM. Same read-out and setting: next, `Cc1c2c(=O)n(-c3nc4ccccc4s3)n(C)c2cc(=O)n1Cc1ccc(Cl)cc1` [AVG-032]: > 20 µM; `Cc1nc(-n2c(=O)c3c(C)n(Cc4ccco4)c(=O)cc3n2Cc2ccccc2)sc1C` [AVG-033]: 1 to 10 µM; `Cc1c2c(=O)n(-c3cc4ccccc4cn3)n(Cc3ccccc3)c2cc(=O)n1Cc1ccco1` [AVG-034]: 1 to 10 µM.

On to `Cc1c2c(=O)n(-c3ccccn3)n(Cc3ccccc3)c2cc(=O)n1Cc1ccco1` [AVG-035], for which the EC50 lay in the range of 1 to 10 µM. The same measure, in the same setting: next, `Cc1c2c(=O)n(-c3nc4ccccc4s3)n(Cc3ccccc3)c2cc(=O)n1Cc1ccccn1` [AVG-036]: 0.1 to 1 µM; `Cc1c2c(=O)n(-c3nc4ccccc4s3)n(C)c2cc(=O)n1Cc1ccccn1` [AVG-037]: > 20 µM. For the molecule `Cc1c2c(=O)n(-c3nc4ccccc4s3)n(Cc3ccccc3)c2cc(=O)n1CC1CCNCC1` [AVG-038], the concentration giving a half-maximal response (EC50) was > 20 µM. Take `Cc1c2c(=O)n(-c3nc4ccccc4s3)n(Cc3ccccc3)c2cc(=O)n1CC1CCN(C)CC1` [AVG-039]: the concentration giving a half-maximal response (EC50) lay in the range of 10 to 20 µM.

In the case of `Cc1c2c(=O)n(-c3nc4ccccc4s3)n(Cc3ccccc3)c2cc(=O)n1CC1CCOCC1` [AVG-040], the EC50 lay within 1 to 10 µM.

For the molecule `Cc1c2c(=O)n(-c3nc4ccccc4s3)n(Cc3ccccc3)c2cc(=O)n1C1CCNCC1` [AVG-041], the EC50 lay within 1 to 10 µM.

On to `Cc1c2c(=O)n(-c3nc4ccccc4s3)n(Cc3ccccc3)c2cc(=O)n1C1CCN(C)CC1` [AVG-042], for which the EC50 was in the range of 1 to 10 µM.

As to `Cc1c2c(=O)n(-c3nc4ccccc4s3)n(Cc3ccccc3)c2cc(=O)n1C1CCOCC1` [AVG-043], the EC50 was 10 to 20 µM. Still for that read-out and setting: under `Cc1c2c(=O)n(-c3nc4ccccc4s3)n(CC(C)C)c2cc(=O)n1Cc1ccco1` [AVG-070] stands 1 to 10 µM; under `Cc1c2c(=O)n(-c3nc4ccccc4s3)n(CC3CCCC3)c2cc(=O)n1Cc1ccco1` [AVG-071], 1 to 10 µM. Same read-out and setting: under `Cc1c2c(=O)n(-c3nc4ccccc4s3)n(CC3CCCOC3)c2cc(=O)n1Cc1ccco1` (stereo not shown) [AVG-072] stands 1 to 10 µM. Turning to `Cc1c2c(=O)n(-c3nc4ccccc4s3)n(CC3CCCCO3)c2cc(=O)n1Cc1ccco1` (stereo not shown) [AVG-073], the EC50 lay within 1 to 10 µM. On the same count and under the same terms, next, `Cc1c2c(=O)n(-c3nc4ccccc4s3)n(Cc3ccccc3)c2cc(=O)n1CC1CCCO1` (stereo not shown) [AVG-074]: 10 to 20 µM.

As to `Cc1c2c(=O)n(-c3nc4ccccc4s3)n(Cc3ccccc3)c2cc(=O)n1CC1CCOC1` (stereo not shown) [AVG-075], the concentration giving a half-maximal response (EC50) fell in the range of 1 to 10 µM. Still for that read-out and setting: under `Cc1c2c(=O)n(-c3nc4ccccc4s3)n(Cc3ccccc3)c2cc(=O)n1Cc1ccccc1Cl` [AVG-076] stands 10 to 20 µM. Same read-out and setting: next, `Cc1c2c(=O)n(-c3nc4ccccc4s3)n(Cc3ccccc3)c2cc(=O)n1Cc1cccc(Cl)c1` [AVG-077]: 0.1 to 1 µM; `Cc1c2c(=O)n(-c3ccccn3)n(Cc3ccccc3)c2cc(=O)n1Cc1ccc(Cl)cc1` [AVG-078]: 0.1 to 1 µM; `Cc1c2c(=O)n(-c3ccccn3)n(CC3CCOCC3)c2cc(=O)n1Cc1ccc(Cl)cc1` [AVG-079]: > 20 µM. On the same count and under the same terms, next, `Cc1c2c(=O)n(-c3ccccc3)n(Cc3ccccc3)c2cc(=O)n1Cc1ccco1` [AVG-080]: 1 to 10 µM; `Cc1c2c(=O)n(-c3cccnc3)n(Cc3ccccc3)c2cc(=O)n1Cc1ccco1` [AVG-081]: 10 to 20 µM; `Cc1c2c(=O)n(-c3ccncc3)n(Cc3ccccc3)c2cc(=O)n1Cc1ccco1` [AVG-082]: 1 to 10 µM. Take `Cc1c2c(=O)n(-c3nc4ccccc4s3)n(Cc3ccccc3)c2cc(=O)n1Cc1cccnc1` [AVG-088]: the EC50 is 1 to 10 µM.

As for `Cc1c2c(=O)n(-c3nc4ccccc4s3)n(Cc3ccccc3)c2cc(=O)n1Cc1ccncc1` [AVG-089], the EC50 was 1 to 10 µM. Turning to `Cc1c2c(=O)n(-c3nc4ccccc4s3)n(Cc3ccccc3)c2cc(=O)n1Cc1ncccn1` [AVG-090], the EC50 fell in the range of 10 to 20 µM. The same measure, in the same setting: next, `Cc1c2c(=O)n(-c3nc4ccccc4s3)n(Cc3ccccc3)c2cc(=O)n1Cc1cccnn1` [AVG-091]: 1 to 10 µM; `Cc1c2c(=O)n(-c3nc4ccccc4s3)n(Cc3ccccc3)c2cc(=O)n1Cc1ccncn1` [AVG-092]: 1 to 10 µM. On the same count and under the same terms, next, `Cc1c2c(=O)n(-c3nc4ccccc4s3)n(Cc3ccccc3)c2cc(=O)n1Cc1cnccn1` [AVG-093]: 0.1 to 1 µM; `Cc1c2c(=O)n(-c3nc4ccccc4s3)n(Cc3ccccc3)c2cc(=O)n1Cc1cccc(Cl)n1` [AVG-094]: 0.1 to 1 µM. On the same count and under the same terms, under `Cc1c2c(=O)n(-c3nc4ccccc4s3)n(Cc3ccccc3)c2cc(=O)n1Cc1ccc(Cl)cn1` [AVG-095] stands 1 to 10 µM; under `Cc1c2c(=O)n(-c3nc4ccccc4s3)n(Cc3ccccc3)c2cc(=O)n1Cc1ncco1` [AVG-096], 1 to 10 µM; under `Cc1c2c(=O)n(-c3nc4ccccc4s3)n(Cc3ccccc3)c2cc(=O)n1Cc1ncc[nH]1` [AVG-097], 1 to 10 µM. Take `Cc1c2c(=O)n(-c3nc4ccccc4s3)n(Cc3ccccc3)c2cc(=O)n1Cc1nccn1C` [AVG-098]: the EC50 was 1 to 10 µM. Still for that read-out and setting: under `Cc1c2c(=O)n(-c3nc4ccccc4s3)n(Cc3ccccc3)c2cc(=O)n1Cc1c[nH]cn1` [AVG-099] stands 1 to 10 µM. The same measure, in the same setting: next, `Cc1c2c(=O)n(-c3nc4ccccc4s3)n(Cc3ccccc3)c2cc(=O)n1Cc1cn(C)cn1` [AVG-100]: > 20 µM; `Cc1c2c(=O)n(-c3nc4ccccc4s3)n(Cc3ccccc3)c2cc(=O)n1Cc1ccn[nH]1` [AVG-101]: 1 to 10 µM; `Cc1c2c(=O)n(-c3nc4ccccc4s3)n(Cc3ccccc3)c2cc(=O)n1Cc1ccnn1C` [AVG-102]: 1 to 10 µM. The same measure, in the same setting: under `Cc1c2c(=O)n(-c3nc4ccccc4s3)n(Cc3ccccc3)c2cc(=O)n1Cc1ccn(C)n1` [AVG-103] stands 1 to 10 µM; under `Cc1c2c(=O)n(-c3ccccn3)n(Cc3ccccc3)c2cc(=O)n1Cc1ccccn1` [AVG-104], 1 to 10 µM; under `Cc1c2c(=O)n(-c3ncccn3)n(Cc3ccccc3)c2cc(=O)n1Cc1ccco1` [AVG-105], > 20 µM. Regarding `Cc1c2c(=O)n(-c3cnccn3)n(Cc3ccccc3)c2cc(=O)n1Cc1ccco1` [AVG-106], the 50% effective concentration (EC50) lay within 1 to 10 µM.

For the molecule `Cc1c2c(=O)n(-c3ccccc3)n(Cc3ccccc3)c2cc(=O)n1Cc1ccccn1` [AVG-107], the concentration giving a half-maximal response (EC50) was 1 to 10 µM. Same read-out and setting: under `Cc1c2c(=O)n(-c3ccncn3)n(Cc3ccccc3)c2cc(=O)n1Cc1ccco1` [AVG-108] stands 1 to 10 µM; under `Cc1c2c(=O)n(-c3cccnn3)n(Cc3ccccc3)c2cc(=O)n1Cc1ccco1` [AVG-109], 1 to 10 µM; under `Cc1c2c(=O)n(-c3ccco3)n(Cc3ccccc3)c2cc(=O)n1Cc1ccccn1` [AVG-110], 10 to 20 µM.
